These results are taken from ChEMBL document CHEMBL3997763 (Medchemcomm, 2016).

Series [1] has as its system Rattus norvegicus. Kind of series: Antihyperlipidemic activity in triton WR-1339 induced Charles Foster rat hyperlipidemia model assessed as inhibition of total cholesterol level in serum at 50 mg/kg, po administered simultaneously with triton WR-1339 after 18 hrs by enzymatic method relative to control. The format is functional.
The subject of series [2] is Rattus norvegicus. Kind of series: Hypolipidemic activity in HFD-induced Charles Foster rat chronic hyperlipidemia model assessed as increase in fecal excretion of deoxycholic acid at 100 mg/kg administered via oral gavage for 30 days simultaneously with high fat diet by enzymatic method relative to HFD treated vehicle. Type of series: functional.
Series [3] concerns the target T1, 3-hydroxy-3-methylglutaryl-coenzyme A reductase (Homo sapiens) (UniProt P04035).
T1 sequence (whole entry): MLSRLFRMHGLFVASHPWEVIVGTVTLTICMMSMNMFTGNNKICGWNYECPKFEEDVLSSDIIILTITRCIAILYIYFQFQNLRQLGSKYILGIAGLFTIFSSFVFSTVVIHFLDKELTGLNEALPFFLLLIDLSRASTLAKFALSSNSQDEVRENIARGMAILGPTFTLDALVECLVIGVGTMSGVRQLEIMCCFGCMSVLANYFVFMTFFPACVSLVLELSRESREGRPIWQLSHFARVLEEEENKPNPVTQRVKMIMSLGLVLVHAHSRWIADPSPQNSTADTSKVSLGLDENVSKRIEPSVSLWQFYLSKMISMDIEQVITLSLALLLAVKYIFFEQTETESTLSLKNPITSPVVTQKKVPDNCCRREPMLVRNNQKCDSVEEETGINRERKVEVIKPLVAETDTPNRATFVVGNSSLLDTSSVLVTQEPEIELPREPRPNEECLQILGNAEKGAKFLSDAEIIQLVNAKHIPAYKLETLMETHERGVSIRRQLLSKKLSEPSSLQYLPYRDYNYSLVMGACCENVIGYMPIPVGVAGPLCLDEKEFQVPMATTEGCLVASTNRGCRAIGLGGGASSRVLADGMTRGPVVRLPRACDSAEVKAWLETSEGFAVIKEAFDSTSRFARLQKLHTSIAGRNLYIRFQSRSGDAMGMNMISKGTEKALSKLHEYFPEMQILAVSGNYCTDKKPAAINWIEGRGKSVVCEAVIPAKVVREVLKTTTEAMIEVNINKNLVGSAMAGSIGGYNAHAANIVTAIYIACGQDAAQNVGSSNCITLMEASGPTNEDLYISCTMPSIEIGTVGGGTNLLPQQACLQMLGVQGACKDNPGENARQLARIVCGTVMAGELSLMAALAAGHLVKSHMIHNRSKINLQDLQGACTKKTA
The experiment in a line: Inhibition of human HMG-CoA reductase catalytic domain at 10 uM using HMG-CoA as substrate in presence of NADPH by colorimetric method relative to control.

Series [4] deals with T1, 3-hydroxy-3-methylglutaryl-coenzyme A reductase (Homo sapiens). Kind of series: Inhibition of human HMG-CoA reductase catalytic domain at 5 uM using HMG-CoA as substrate in presence of NADPH by colorimetric method relative to control.
Series [5] shares this target. The experiment in a line: Inhibition of human HMG-CoA reductase catalytic domain at 20 uM using HMG-CoA as substrate in presence of NADPH by colorimetric method relative to control.
Series [6] has the same target. Kind of series: Inhibition of human HMG-CoA reductase catalytic domain at 50 uM using HMG-CoA as substrate in presence of NADPH by colorimetric method relative to control.
Series [7] is filed under the species Rattus norvegicus. The experiment in a line: animal or person. The settings on record: Charles Foster, po, 18 h. The format is functional.
Description: Antihyperlipidemic activity in triton WR-1339 induced Charles Foster rat hyperlipidemia model assessed as inhibition of total cholesterol level in serum at 100 mg/kg, po administered simultaneously with triton WR-1339 after 18 hrs by enzymatic method relative to control
For series [8], the species on record is Rattus norvegicus. The experiment in a line: animal or person. Type of series: functional. The settings on record: Charles Foster, po, 18 h. The source holds these as a separate data set.
Description: Antihyperlipidemic activity in triton WR-1339 induced Charles Foster rat hyperlipidemia model assessed as inhibition of triglyceride level in serum at 100 mg/kg, po administered simultaneously with triton WR-1339 after 18 hrs by enzymatic method relative to control
In series [9] the test system is Rattus norvegicus. The experiment in a line: Antihyperlipidemic activity in triton WR-1339 induced Charles Foster rat hyperlipidemia model assessed as increase in HDL-C level in serum at 50 mg/kg, po administered simultaneously with triton WR-1339 after 18 hrs by enzymatic method relative to control. The format is functional.
Series [10] deals with Rattus norvegicus. Kind of series: Antihyperlipidemic activity in triton WR-1339 induced Charles Foster rat hyperlipidemia model assessed as inhibition of triglyceride level in serum at 50 mg/kg, po administered simultaneously with triton WR-1339 after 18 hrs by enzymatic method relative to control. The format is functional.
Series [11] has as its system Rattus norvegicus. The experiment in a line: Antihyperlipidemic activity in triton WR-1339 induced Charles Foster rat hyperlipidemia model assessed as inhibition of phospholipid level in serum at 150 mg/kg, po administered simultaneously with triton WR-1339 after 18 hrs by enzymatic method relative to control. The format is functional.
The test system of series [12] is Rattus norvegicus. The experiment in a line: Antihyperlipidemic activity in triton WR-1339 induced Charles Foster rat hyperlipidemia model assessed as increase in HDL-C level in serum at 150 mg/kg, po administered simultaneously with triton WR-1339 after 18 hrs by enzymatic method relative to control. Type of series: functional.
Series [13] deals with Rattus norvegicus. The experiment in a line: Antihyperlipidemic activity in HFD-induced Charles Foster rat chronic hyperlipidemia model assessed as body weight at 100 mg/kg administered via oral gavage for 30 days simultaneously with high fat diet (reference value: 263.52 +/- 21.56 g). Type of series: functional.
Series [14] deals with Rattus norvegicus. The experiment in a line: Hypolipidemic activity in HFD-induced Charles Foster rat chronic hyperlipidemia model assessed as reduction in serum triglyceride level at 100 mg/kg administered via oral gavage for 30 days simultaneously with high fat diet by enzymatic method relative to HFD treated vehicle. The format is functional. To be noted: 720 h.
For series [15], the system named is Rattus norvegicus. The experiment in a line: Hypolipidemic activity in HFD-induced Charles Foster rat chronic hyperlipidemia model assessed as reduction in serum AST level at 100 mg/kg administered via oral gavage for 30 days simultaneously with high fat diet by colorimetric method relative to HFD treated vehicle. The format is functional. The settings on record: 720 h.

Series [16] relates to Rattus norvegicus. The experiment in a line: Hypolipidemic activity in HFD-induced Charles Foster rat assessed as reduction in serum VLDL-TC at 100 mg/kg administered as single dose via oral gavage for 30 days simultaneously with high fat diet. The format is functional, organism-based.
For series [17], the system named is Rattus norvegicus. Kind of series: Hypolipidemic activity in HFD-induced Charles Foster rat assessed as reduction in serum VLDL-TG at 100 mg/kg administered as single dose via oral gavage for 30 days simultaneously with high fat diet. The format is functional, organism-based.
For series [18], the system named is Rattus norvegicus. Kind of series: Hypolipidemic activity in HFD-induced Charles Foster rat assessed as reduction in serum LDL-TG at 100 mg/kg administered as single dose via oral gavage for 30 days simultaneously with high fat diet. The format is functional, organism-based.
The subject of series [19] is Rattus norvegicus. Kind of series: Hypolipidemic activity in HFD-induced Charles Foster rat assessed as increase in serum HDL-TG at 100 mg/kg administered as single dose via oral gavage for 30 days simultaneously with high fat diet. Type of series: functional, organism-based.
In series [20] the test system is Rattus norvegicus. Kind of series: Antihyperlipidemic activity in po dosed triton WR-1339 induced Charles Foster rat hyperlipidemia model assessed as increase in HDL-C level in serum administered simultaneously with triton WR-1339 after 18 hrs by enzymatic method relative to control. Type of series: functional, organism-based.
In series [21] the test system is Rattus norvegicus. The experiment in a line: Antihyperlipidemic activity in po dosed triton WR-1339 induced Charles Foster rat hyperlipidemia model assessed as inhibition of total cholesterol level in serum administered simultaneously with triton WR-1339 after 18 hrs by enzymatic method relative to control. Type of series: functional, organism-based.
Series [22] deals with Rattus norvegicus. The experiment in a line: Antihyperlipidemic activity in po dosed triton WR-1339 induced Charles Foster rat hyperlipidemia model assessed as inhibition of triglyceride level in serum administered simultaneously with triton WR-1339 after 18 hrs by enzymatic method relative to control. The format is functional, organism-based.
The test system of series [23] is Liver. The experiment in a line: Intrinsic clearance in Sprague-Dawley rat liver microsomes at 10 uM in absence of NADPH after 5 to 90 mins by LC-MS/MS analysis. Type of series: ADME, microsome.
The target in series [24] is Albumin (Bos taurus, UniProt P02769). The experiment in a line: Binding affinity to bovine serum albumin by absorption spectroscopic method. The format is ADME. The settings on record: cattle, isolated protein.
Albumin, sequence (P02769 whole entry): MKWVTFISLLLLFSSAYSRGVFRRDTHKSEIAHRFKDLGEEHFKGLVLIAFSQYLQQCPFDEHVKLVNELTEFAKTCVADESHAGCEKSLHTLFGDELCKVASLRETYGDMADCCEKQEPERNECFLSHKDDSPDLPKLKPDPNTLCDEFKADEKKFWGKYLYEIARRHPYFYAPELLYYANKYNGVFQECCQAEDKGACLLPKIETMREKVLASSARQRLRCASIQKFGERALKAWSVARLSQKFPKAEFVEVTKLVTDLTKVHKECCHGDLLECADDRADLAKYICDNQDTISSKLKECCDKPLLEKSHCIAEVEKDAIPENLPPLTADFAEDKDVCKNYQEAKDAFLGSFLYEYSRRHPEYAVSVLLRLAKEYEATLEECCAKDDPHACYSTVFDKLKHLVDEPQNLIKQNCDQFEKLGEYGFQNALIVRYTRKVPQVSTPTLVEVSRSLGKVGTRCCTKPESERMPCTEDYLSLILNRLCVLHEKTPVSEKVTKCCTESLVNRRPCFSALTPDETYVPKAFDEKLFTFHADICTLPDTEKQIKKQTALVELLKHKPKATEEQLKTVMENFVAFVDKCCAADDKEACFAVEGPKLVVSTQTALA

Active and inactive are the calls of the source. No cut-off for these calls is given here.

For `COc1ccc(-c2cc3cc(C(c4c[nH]c5ccccc45)c4c[nH]c5ccccc45)cc(C(C)(C)C)c3oc2=O)cc1OC`, the inhibition in vivo at 50 mg/kg in series [1] and in series [10] was 20% each time. For the same compound, the Activity was 39% in [2]; 15% in series [9]; 25% in series [12]; 228.19 g in [13]; “Dose-dependent effect” in series [20]; “Active” in series [24]. The inhibition is 56% in series [3]; 32% in [4]; 63% in series [5]; 74% in [6]; “Dose-dependent effect” in series [21]; “Dose-dependent effect” in series [22]. Further, the inhibition in vivo at 100 mg/kg in series [7] is 32%; in [8], 33%; in [14], 26%; in series [15], 28%. The inhibition in vivo at 150 mg/kg in [11] came to 35%. Also, the outcome in [16], in [17], in series [18] and in series [19] was Active. In series [23], this compound registered a CLH of 5.8 µL/min/mg.
